# Source: patent US8334253B2, “Cosmetic and dermatological formulations of MNTF peptides” (Dermacare Neuroscience Institute, priority 2008, dated 2012)
# Tests used:
# [1] = tested on: gamma interferon-induced NO production in epidermal keratinocytes; assay: Inhibition of gamma interferon-induced nitric oxide production in keratinocytes (Griess reaction); type: cell-based; details: positive control, aminoguanidine 10 mg/mL plus gamma interferon
# Source text: The study method chosen is similar to that published in the reference Tsai et al. (Tsai et al, Inhibition of inflammatory nitric oxide production and epidermis damages by Saccharomycopsis Ferment Filtrate. J Dermatol Sci 2006 June 42 (3): 249-57. Laskin, Multifunctional Role of Nitric Oxide in Inflammation, Trends Endocrinol Metab 1994; 5:377-382. Lyons, Emerging Roiles of Nitric Oxide in Inflammation, Hospital Practice, Jul. 15, 1996: 69-86.)
# The objective of the study was to investigate the inhibition effect of Pal-hexapeptide (SEQ ID NO: 2, in palmitylated form) on gamma interferon-induced NO production in epidermal keratinocytes in culture.
# Anti-inflammatory effect was observed as a reduction of nitric oxide production in keratinocytes. Keratinocytes were incubated 48 hours with gamma-interferon (300 U/ml) alone (as control) or with gamma-interferon together with different concentrations (0.1 μM, 1 μM, 10 μM, 100 μM and 1000 μM) of Pal-hexapeptide. Gamma interferon plus aminoguanidine (10 mg/mL) was used as positive control. The amount of NO production was detected by Griess reaction. Nitric oxide readily oxides to nitrite in aqueous medium, and this reaction was measured as nitrite accumulation in the medium. […] The optical density of the wells were read using a Tibertek Mutiskan (MCC microplate reader at a wavelength of 540 nm, subtracting the absorbance at a reference wavelength of 620 nm.) A printout of the absorbance values was generated by the plate reader, and data were entered into an EXCEL spreadsheet for analysis. The average absorbance and standard deviations were expressed as percent of control absorbances.
# [2] = tested on: UVA-bleaching of beta-carotene; assay: UVA bleaching of beta-carotene on forearm skin, Color Index by CHROMAMETER; type: in vivo, human; details: human forearm
# Experimental: In-vivo method for assessing the protective effects of cosmetic products. Bleaching of carotenoids have been used to evaluate the auto-oxidation activity of natural products. The relative efficacy of scavengers of lipid peroxyl free radicals after application to the skin was assessed by measuring the UVA-bleaching of beta-carotene as a function of the energy exposure.
# A CHROMAMETER colorimeter (TM, Minolta Model CR-300) was used to measure changes in color by expressing the color of measured surfaces numerically in L*a*b* color space which is a system recommended by the CIE (Commission Internationale de I'Eclairage) for skin color assessment. In this color space, L* is the luminance and gives the relative brightness from total black (L*=0) to total white (L*=100). The a* value represents the balance between the reds (positive values) and the greens (negative values). The b* value represents the balance between the yellows (positive values) and the blues (negative values). The b* value most closely describes the intensity of the orange color of the β-carotene stain and is in direct correlation with the Color Index, I. The CHROMAMETER provides a means by which oxidative damage caused by free radicals and, conversely, the prevention of oxidation by free radical scavengers, can be measured. Free radical oxidation induced by UVA radiation elicits a bleaching and reduction of color of beta-carotene stain. The bleaching and prevention of bleaching by a test material can be measured by the CHROMAMETER. Bleaching is reported as the change in b* versus UVA Irradiation Energy. It can also be expressed in terms of a Color Index, I, defined as: I=[(bn*−bi*)/(b0*−bi*)]×100 where, bn* is the value of b* measured after n J/cm^2 of irradiation of the area treated with the cosmetic formulation and painted with the β-carotene; b0* is the value of b* after application of the beta-carotene but before irradiation; and bi* is the value of b* before application of the beta-carotene. This index compensates for any effects of skin color on bn* and b0*. Bleaching will cause bn* value and I value (as a percentage) to decrease. Prevention of bleaching will result in higher I values or less reduction in I value when exposed to radiation.
# The designated forearm of impaneled subjects was cleansed with a 70% isopropyl alcohol prep pad (Medium, Dynarex) and allowed to dry. Test sites were selected on the volar surface of the designated forearm of each subject, with each test site defined by the open, central area of a self-adhesive ring (Professional ProFoot™ Products, P.P.R. Co, Inc.). The adhesive side of the rings were placed directly on the skin. The rings were used to retain the test material and beta-carotene solution as well as to function as a guide for taking measurements with the CHROMAMETER.
# Gel formulations (0.1% Pal-hexapeptide) and (0.1% hexapeptide) were applied to the forearm according to a randomized schedule. Additional sites were treated with a beta-carotene control, a positive control (internal control) and an untreated control. Treatment of the test sites were randomized for each subject.
# Prior to application of the test materials or beta-carotene, the initial b* parameter was measured using the CHROMAMETER and recorded for all duplicate test sites of the forearm (Baseline). Approximately 2 mg/cm^2 of each material was applied to the designated test site and spread manually with a finger cot to ensure even distribution. Sites designated as untreated, with or without beta-carotene, remained untreated at this time. The test materials and internal control were allowed to incubate with the skin surface for a period of fifteen (15) minutes. After this incubation period, b* measurements were recorded for all sites (Product Baseline).
# A solution of beta-carotene in a mixture of capric and caprylic triglycerides was applied to all treated sites. The b* parameter is again measured and recorded (beta-carotene Baseline). […]
# [3] = tested on: cellular peroxide levels in human epidermal keratinocytes; assay: Cellular peroxide levels in keratinocytes, DCFH-DA dye and flow cytometry, with and without exogenous H2O2; type: cell-based
# Experimental: Hydrogen peroxide can induce damages to skin cells. The dermal protective efficacy of Pal-hexapeptide was assessed by measuring basal peroxide levels in the presence and absence of the compound.
# Basal peroxide production, generated by normal cellular metabolism, induce gradual development of low levels of peroxide-specific cellular fluorescence.
# Extracellular peroxides (e.g., H2O2 added exogenously) can permeate the cell membrane and cause a rapid and dramatic increase in the peroxide-specific fluorescence of the cell. Cellular peroxides levels can be measured by flow cytometry using the peroxide-specific dye, 2′,7′-dichlorofluorescein diacetate (DCFH-DA). DCFH-DA is initially non-fluorescent and is rapidly concentrated within living cells by an enzyme-dependent process. […] The results of the assay indicates if a test compound functions as an oxidant or an anti-oxidant in a cellular system. If the test article functions as an anti-oxidant, this assay can also be used to determine if the test compound can permeate the cell membrane to quench intracellular peroxide or if it can only affect extracellular peroxide levels (Bass et al., 1983, J. Immunol. 130:1910-1917; Bombick et al., 1992, Toxicol. Meth. 2:255-264).
# Human primary keratinocytes, generally on the third passage, were seeded in T75 flasks and cultured until 70-80% confluent. A cell suspension was created and these cells were loaded with the dye DCFH-DA. The pre-incubated cells were exposed to dilutions of the Pal-hexapeptide having the amino acid sequence SEQ ID NO: 2 in two triplicate sets per dilution. One triplicate set was incubated with H2O2 (exogenous source of peroxide), and both sets were stained with Propidium Iodide. Cell viability and peroxide production were determined by fluorescence readings on a FACScan flow cytometer. Peroxide value increases or decreases of 25% or more compared to vehicle control values are considered biologically significant.
compound,measurement,setting,value
"N=C(N)NN [AG, aminoguanidine, reference compound]","nitric oxide production induced by Gamma-interferon, % of the control",[1],42%
same,"nitric oxide production induced by Gamma-interferon, % of the control",[1]; listed as positive control,25%
"CC1=C(/C=C/C(C)=C/C=C/C(C)=C/C=C/C=C(C)/C=C/C=C(C)/C=C/C2=C(C)CCCC2(C)C)C(C)(C)CCC1 [PC (beta-carotene), beta-carotene]",average Color Index Value,[2]; UVA energy 0 J/cm^2,100%
same,average Color Index Value,[2]; UVA energy 1 J/cm^2,36%
same,average Color Index Value,[2]; UVA energy 2 J/cm^2,27%
same,average Color Index Value,[2]; UVA energy 3 J/cm^2,23%
same,average Color Index Value,[2]; UVA energy 4 J/cm^2,16%
same,average Color Index Value,[2]; UVA energy 5 J/cm^2,14%
same,average Color Index Value,[2]; UVA energy 6 J/cm^2,13%
"Cc1c(C)c2c(c(C)c1O)CCC(C)(C(=O)O)O2 (stereo not shown) [Trolox, reference compound]","peroxide level, % of the control, endogenous peroxide assay without exogenous H2O2","[3]; positive control, 300 μM, endogenous peroxide",69.79%
same,"peroxide level, % of the control, assay with exogenous added peroxide","[3]; positive control, 300 μM, exogenous H2O2 added",24.97%
FSR [CS2307],"% Control (no H2O2), peroxide level","[3]; 0.1 mM, endogenous peroxide",98.7%
same,"% Control (with H2O2), peroxide level","[3]; 0.1 mM, exogenous H2O2 added",95.5%
same,"% Control (no H2O2), peroxide level","[3]; 1 mM, endogenous peroxide",60.6%
same,"endogenous peroxide level (as defined by the 25% cutoff), in words","[3]; 1 mM, endogenous peroxide",decreased
same,"% Control (with H2O2), peroxide level","[3]; 1 mM, exogenous H2O2 added",62.5%
same,"exogenous peroxide level (as defined by the 25% cutoff), in words","[3]; 1 mM, exogenous H2O2 added",decreased
same,"% Control (no H2O2), peroxide level","[3]; 10 mM, endogenous peroxide",−8.5%
same,"endogenous peroxide level (as defined by the 25% cutoff), in words","[3]; 10 mM, endogenous peroxide",decreased
same,"% Control (no H2O2), peroxide level","[3]; 10 mM, endogenous peroxide, listed as MNTF 3-mer",0%
same,"% Control (with H2O2), peroxide level","[3]; 10 mM, exogenous H2O2 added",−1.5%
same,"exogenous peroxide level (as defined by the 25% cutoff), in words","[3]; 10 mM, exogenous H2O2 added",decreased
same,"% Control (with H2O2), peroxide level","[3]; 10 mM, exogenous H2O2 added, listed as MNTF 3-mer",0%
FSRY [CS2308],"% Control (no H2O2), peroxide level","[3]; 0.1 mM, endogenous peroxide",98.6%
same,"% Control (with H2O2), peroxide level","[3]; 0.1 mM, exogenous H2O2 added",84.5%
same,"% Control (no H2O2), peroxide level","[3]; 1 mM, endogenous peroxide",77.2%
same,"% Control (with H2O2), peroxide level","[3]; 1 mM, exogenous H2O2 added",54.9%
same,"exogenous peroxide level (as defined by the 25% cutoff), in words","[3]; 1 mM, exogenous H2O2 added",decreased
same,"% Control (no H2O2), peroxide level","[3]; 10 mM, endogenous peroxide",25.2%
same,"endogenous peroxide level (as defined by the 25% cutoff), in words","[3]; 10 mM, endogenous peroxide",decreased
same,"% Control (no H2O2), peroxide level","[3]; 10 mM, endogenous peroxide, listed as MNTF 4-mer",0%
same,"% Control (with H2O2), peroxide level","[3]; 10 mM, exogenous H2O2 added",−5.8%
same,"exogenous peroxide level (as defined by the 25% cutoff), in words","[3]; 10 mM, exogenous H2O2 added",decreased
same,"% Control (with H2O2), peroxide level","[3]; 10 mM, exogenous H2O2 added, listed as MNTF 4-mer",25.2%
